Source: patent publication US9573972B2, “Nurotoxic sterol glycosides” (priority 2008, dated 2017)

What was measured:
Cytochrome c oxidase = Cytochrome c oxidase histochemistry; type: in vivo, mouse; details: SG-fed vs control
Method: Tissue-mounted slides were processed for […] in a manner adapted from (Seligman et al., J. Cell. Biol. 1968; 38: 1-14) and Wong-Riley, (1979), Brain Res. 171, 11-28. Sections were rinsed in coplin jars for 15 minutes at RT in three changes of PBS and subsequently incubated with a media comprised of 50 mg of 3,3′-diaminobenzidine tetrahydrochloride (DAB) (DAB substrate system, Vector Laboratories, Burlingame, Calif., USA), 90 mL 0.1M phosphate buffer, 20 mg cytochrome c (type III, Sigma-Aldrich Co., Oakville, ON, Canada), and 4 g of sucrose in a dish submerged in a water bath maintained at 37° C. in the dark for 2 hours. The sections were monitored closely for the brown reaction product to appear within the tissue. Once a medium-brown color was achieved, slides were removed from the incubation media and rinsed for 15 minutes in three changes of PBS to stop the reaction. This was followed with a 2 minutes rinse in distilled water to remove residue from the slides. The slides were dried under a fume hood and cover-slipped with Entellen (Merck, Darmstadt, Germany).
The numbers of immunoreactive somata or inclusions were counted across the ventral horn of the spinal cord, across brain hemispheres, or per dorsal or ventral root with the 40× objective lens in a 600 μm/600 μm area within region perimeters defined by a mouse brain atlas (2001). For each animal, eight cross-sections per spinal cord or brain region were studied. […] For quantification of the level of mitochondrial activity (cytochrome c oxidase labelling) in the lumbar spinal cord or tyrosine hydroxylase immunoreactivity in the substantia nigra pars compacta and striatal sections, images captured using the Motic B5 Professional Series 3.0 microscope (Motic Instruments Inc., Richmond, ON) and analyzed using Motic B5 Professional, Motic Images Advanced 3.0 (Motic Instruments Inc., Richmond, ON) were scanned into a TIFF format file and analysed using the NIH Image J 1.37 software to measure density levels of antibody labelling. […]

[1] = system: lumbar spinal cord α- and γ-motor neurons; assay: Motor neuron counts (cresyl violet, Nissl), lumbar spinal cord; type: in vivo, mouse
Method: Mice were sacrificed for histological analysis at 35 weeks (35.9-48.6 g) and 52 weeks (41.2-51.4 g) of age. Age-matched control mice from each time point were included for comparison. The mice were deeply anaesthetized in a chamber with 4% isoflurane and perfused intracardially with filtered PBS (pH 7.4) until the effluent was cleared of blood (2 minutes), followed by perfusion with cold (4° C.) 4% paraformaldehyde (PFA) in 0.1 M phosphate buffer (pH 7.4) for 5 minutes (30 mL). The PBS and the PFA were delivered through separate sterile platinum-cured silicon tubing (Cole-Parmer Canada Inc., Montreal, Canada) and peristaltic pumps (MasterFlex peristaltic pump, Cole-Parmer Canada Inc., Montreal, Canada). The brains and spinal cords were dissected out and fixed overnight at 4° C. and equilibrated in increasing concentrations of sucrose in phosphate-buffered saline, pH 7.4 (10, 20, and 25%) over a 3-day period. Complete equilibration of the tissues was taken as the moment the tissues sank to the bottom of the scintillation tubes filled with 25% sucrose. After equilibration, the spinal cord and brain specimens were set in molds (Tissue-tek Cryomold, Sakura Finetek, USA, Torrance, Calif.) with an optimum cutting temperature (OCT) gel-sucrose mixture frozen by immersion in an isopentane (BDH Laboratory Supplies, UK) bath on dry ice and stored at −80° C. until processing.
Cryosectioning of tissue: Frozen, coronal sections (spinal cord: 20 μm, brain: 30 μm) were cut with a Hacker-Bright cryostat (Hacker Instruments and Industries Inc., Winnsboro, S.C.) and mounted on charged glass slides (Superfrost Plus; Fisher Scientific, Pittsburgh, Pa.) so that adjacent CNS sections on each slide represented regions 100 μm and 150 μm apart for spinal cord and brain, respectively (Tabata et al., 2008). The slides were stored at −80° C. until histological processing. To ensure CNS sections were matched between animals, anatomical landmarks were verified using a mouse brain atlas (Paxinos and Franklin, The mouse brain in stereotaxic coordinates: Second Edition, K.B.J., Academic Press, New York, 2001).
Histology and quantification of motor neurons: Spinal cord and brain sections from each animal were stained for Nissl body substance. At room temperature (RT), sections were rinsed in a graded ethanol series (95%:15 min; 70%:1 min; 50%:1 min) to rehydrate and remove lipids and fixation chemicals from the tissue. The tissue were then rinsed for 2 min in two exchanges of distilled water, stained with twice-filtered cresyl violet stain (1.25 g cresyl violet acetate, 0.75 mL glacial acetic acid to 250 mL distilled water), rinsed in distilled water (1 minute), and then dehydrated (50% ethanol: 1 minute; 1% glacial acetic acid-70% ethanol: 2 minutes; 95% ethanol: 2 minutes; 95% ethanol: 3 dips; 100% ethanol: 1 minute) and cleared in xylene. The slides were then cover-slipped in Entellen mountant (Merck, Darmstadt, Germany). The tissue mounted slides were selected with a randomized start and sampled starting from the lumbar 2 region to the 6th. […] The boundaries for the ventral horn was determined by the margins of the gray matter for the lateral, medial and ventral boundaries as well as with the aid of an artificial line drawn laterally through the central canal. Both the left and right ventral horns from 12 sections from each animal were counted. Alpha-motor neurons and γ-motor neurons with and without apoptotic structural changes were counted using strict morphological and size criteria. Non-apoptotic α-neurons were considered as the following: Large, multipolar cells with a round, pale nucleus; visible nucleolus; globular Nissl body staining of the cytoplasm; and a diameter of 30-45 μm. In doing so, astrocytes, oligodendrocytes and microglia were excluded from the “α-motor neuron” counts (Martin, L. J. (1999) J Neuropathol Exp Neurol. 58, 459-71; Sepkuty, J. P., et al. (2002) J Neurosci. 22, 6372-9; Tabata et al., 2008). […]

[2] = SG-fed vs control, Time-point 1 (35 wk)
[3] = SG-fed vs control, Time-point 2 (52 wk)
[4] = SG-group over time (35 to 52 wk)

For CC[C@H](/C=C/[C@@H](C)[C@H]1CC[C@H]2[C@@H]3CC=C4C[C@@H](O[C@@H]5O[C@H](CO)[C@@H](O)[C@H](O)[C@H]5O)CC[C@]4(C)[C@H]3CC[C@]12C)C(C)C [SG, Stigmasterol β-D-Glucopyranoside], the “Cytochrome c oxidase activity” value (Cytochrome c oxidase; Time-point 1 (35 wk)) was “(ns)”, the “Cytochrome c oxidase activity” value (Cytochrome c oxidase; Time-point 2 (52 wk)) was “(ns)” and the “Cytochrome c oxidase activity, difference between groups” value (Cytochrome c oxidase; at 35 or 52 weeks) was “no significant differences”. The “Chromatolytic α-MN” value [1, 2] was “Chromatolytic α-MN (ns)”, the “Healthy α-MN per lumbar cord section” value [1, 2] was “Healthy α-MN (ns)” and the “Pyknotic α-MN” value [1, 2] was “Pyknotic α-MN (ns)”. The “Total γ-MN” value [1, 2] was “Total γ-MN (ns)”, the “Chromatolytic α-MN” value [1, 3] was “Chromatolytic α-MN (ns)” and the “Pyknotic α-MN” value [1, 3] was “Pyknotic α-MN (ns)”. The “Total γ-MN” value [1, 3] was “Total γ-MN (ns)”, the “Chromatolytic α-MN over time” value [1, 4] was “(control group & SG-group independently over time) (ns)” and the “Pyknotic α-MN over time” value [1, 4] was “(control group and SG-group independently over time) (ns)”. The “Total γ-MN over time” value [1, 4] was “(control group and SG-group independently over time) (ns)”.
